Structures can show the parent of a compound that is named as a salt.
System: NIH-3T3/Gli reporter cells
Assay: Evaluation of compound: Shh-N-induced luciferase activity in NIH-3T3/Gli reporter cells (Smo inhibitory action)
Format: cell-based
Conditions: 48 hr; for inhibition at 1 µM: NIH3T3, 1 μM compound, mouse Shh-N end fragment supernatant, read-out: inhibition rate (%) at 1 μM; for IC50: NIH3T3, mouse Shh-N end fragment supernatant, read-out: IC50 value (compound concentration necessary for achieving 50% of the maximum value of inhibition rate)
Procedure: HEK293 cells were grown in D-MEM medium (Invitrogen) containing 10% fetal bovine serum in a 10 cm dish and pcDNA3.1/mShh-N was introduced into the cells using FuGENE6 (Roche Applied Science). Thereafter, the HEK293 cells were cultured in a carbon dioxide gas incubator at 37° C. for 24 hours, and the medium was exchanged with D-MEM medium (Invitrogen) containing 2% fetal bovine serum. After culturing for 48 hr, a culture supernatant containing recombinant type mouse Shh-N end fragment was obtained by filtration using a filter ([…]).
Using D-MEM (Invitrogen) containing 10% fetal bovine serum, expression plasmid pcDNA3.1 and Gli reporter plasmid (pGL3/δ-cry promoter, 8×Gli binding site) produced by the method of Experimental Example 1 were introduced into NIH-3T3 cells grown in a 10 cm dish by the use of FuGENE6 (Roche Applied Science).
After culture for 24 hr, the cells were recovered, suspended in D-MEM medium containing 10% fetal bovine serum and supplemented with Geneticin (Life Technologies Oriental, Inc.) to a final concentration of 500 μg/ml, diluted to 10^4 cells/ml, plated on a 96 well plate, and cultured in a carbon dioxide gas incubator at 37° C. to give Geneticin resistant transformed cell line.
The obtained transformed cell line was cultured in a 96 well plate, mouse Shh-N end fragment obtained in Experimental Example 3 was added, and NIH-3T3/Gli reporter cell, which is a cell line capable of induction of luciferase expression, was selected.
NIH-3T3/Gli reporter cells cultured in D-MEM (Invitrogen) containing 10% fetal bovine serum were plated in a 96 well white plate at 1×10^4 cells/well, and cultured overnight in a carbon dioxide gas incubator at 37° C. The medium was removed, a compound (50 μl) and culture supernatant of mouse Shh-N end fragment-expressing HEK293 (D-MEM medium containing 2% fetal bovine serum, 50 μl) were added, and the cells were cultured for 48 hr in a carbon dioxide gas incubator at 37° C. Bright-Glo (Promega, 50 μl) was added, and the mixture was stirred, after which luciferase activity was measured by EnVision (PerkinElmer). The inhibition rate was calculated based on the luciferase activity of the control without addition of the compound as 100. The concentration of the compound and the inhibition rate were analyzed by PRISM3.00 (software of GraphPad), based on which the IC50 value (compound concentration necessary for achieving 50% of the maximum value of inhibition rate) of the compound was calculated.

| SMILES | inhibition at 1 µM [%] | IC50 [µM] |
| --- | --- | --- |
| CCCc1cc2c(c(OCC)c(C(=O)NC3CCN(C(=O)CO)CC3)n2C)c(=O)n1CC(=O)c1ccccc1 [Example 141, 3-ethoxy-N-[1-(hydroxyacetyl)piperidin-4-yl]-1-methyl-4-oxo-5-(2-oxo-2-phenylethyl)-6-propyl-4,5-dihydro-1H-pyrrolo[3,2-c]pyridine-2-carboxamide] | 100 |  |
| COc1c(C(=O)N(C)CC(=O)N2CCCC2)sc2c1c(=O)n(CC(=O)c1ccccc1)c1ccccc21 [Example 27, 3-methoxy-N-methyl-4-oxo-5-(2-oxo-2-phenylethyl)-N-(2-oxo-2-pyrrolidin-1-ylethyl)-4,5-dihydrothieno[3,2-c]quinoline-2-carboxamide] | 100 | ≤ 1 |
| CCOc1c(C(=O)NCCN2CCCC2)sc2c1c(=O)n(CC(=O)c1ccccc1)c1ccccc21 [Example 43, 3-ethoxy-4-oxo-5-(2-oxo-2-phenylethyl)-N-(2-pyrrolidin-1-ylethyl)-4,5-dihydrothieno[3,2-c]quinoline-2-carboxamide] | 100 | ≤ 1 |
| CCCOc1c(C(=O)NC2CCN(C(=O)CO)CC2)n(C)c2cc(CC)n(CC(=O)c3ccccc3)c(=O)c12 [Example 510, 6-ethyl-N-[1-(hydroxyacetyl)piperidin-4-yl]-1-methyl-4-oxo-5-(2-oxo-2-phenylethyl)-3-propoxy-4,5-dihydro-1H-pyrrolo[3,2-c]pyridine-2-carboxamide] | 100 |  |
| COc1c(C(=O)N(C)C2CCN(C)C2)sc2c1c(=O)n(CC(=O)c1ccccc1)c1ccccc21 (stereo not shown) [Example 16, 3-methoxy-N-methyl-N-(1-methylpyrrolidin-3-yl)-4-oxo-5-(2-oxo-2-phenylethyl)-4,5-dihydrothieno[3,2-c]quinoline-2-carboxamide trifluoroacetate] | 100 | ≤ 1 |
| CCOc1c(C(=O)NCC(C)(C)O)n(C)c2cc(C)n(CC(=O)c3ccccc3)c(=O)c12 [Example 132, 3-ethoxy-N-(2-hydroxy-2-methylpropyl)-1,6-dimethyl-4-oxo-5-(2-oxo-2-phenylethyl)-4,5-dihydro-1H-pyrrolo[3,2-c]pyridine-2-carboxamide] | 100 |  |
| COc1c(C(=O)NCC2CCCCN2)sc2c1c(=O)n(CC(=O)c1ccccc1)c1ccccc21 (stereo not shown) [Example 74, 3-methoxy-4-oxo-5-(2-oxo-2-phenylethyl)-N-(piperidin-2-ylmethyl)-4,5-dihydrothieno[3,2-c]quinoline-2-carboxamide hydrochloride] | 100 | ≤ 1 |
| COc1c(C(=O)NC(C)CN(C)C)n(C)c2c1c(=O)n(CC(=O)c1ccccc1)c1ccccc21 (stereo not shown) [Example 92, N-[2-(dimethylamino)-1-methylethyl]-3-methoxy-1-methyl-4-oxo-5-(2-oxo-2-phenylethyl)-4,5-dihydro-1H-pyrrolo[3,2-c]quinoline-2-carboxamide] | 100 | ≤ 1 |
| COc1c(C(=O)N2CCCN(C)CC2)sc2c1c(=O)n(CC(=O)c1ccccc1)c1ccccc21 [Example 17, 3-methoxy-2-[(4-methyl-1,4-diazepan-1-yl)carbonyl]-5-(2-oxo-2-phenylethyl)thieno[3,2-c]quinolin-4(5H)-one trifluoroacetate] | 99 | ≤ 1 |
| CCN(CC)CCN(C)C(=O)c1c(OC)c2c(=O)n(CC(=O)c3ccccc3)c3ccccc3c2n1C [Example 56, N-[2-(diethylamino)ethyl]-3-methoxy-N,1-dimethyl-4-oxo-5-(2-oxo-2-phenylethyl)-4,5-dihydro-1H-pyrrolo[3,2-c]quinoline-2-carboxamide hydrochloride] | 100 | ≤ 1 |
| COc1c(C(=O)NCCO)sc2c1c(=O)n(CC(=O)c1ccccc1)c1ccccc21 [Example 32, N-(2-hydroxyethyl)-3-methoxy-4-oxo-5-(2-oxo-2-phenylethyl)-4,5-dihydrothieno[3,2-c]quinoline-2-carboxamide] | 95 | ≤ 1 |
| COc1c(C(=O)NCCN2CCC(O)CC2)n(C)c2c1c(=O)n(CC(=O)c1ccccc1)c1ccccc21 [Example 69, N-[2-(4-hydroxypiperidin-1-yl)ethyl]-3-methoxy-1-methyl-4-oxo-5-(2-oxo-2-phenylethyl)-4,5-dihydro-1H-pyrrolo[3,2-c]quinoline-2-carboxamide] | 100 | ≤ 1 |
| CCN(CC)CCN(C)C(=O)c1sc2c(c1OC)c(=O)n(CCOc1ccccc1)c1ccccc21 [Example 51, N-[2-(diethylamino)ethyl]-3-methoxy-N-methyl-4-oxo-5-(2-phenoxyethyl)-4,5-dihydrothieno[3,2-c]quinoline-2-carboxamide] | 100 | ≤ 1 |
| CCCOc1c(C(=O)NC2CCN(C(=O)CO)CC2)n(C)c2cc(C)n(CC(=O)c3ccccc3)c(=O)c12 [Example 137, N-[1-(hydroxyacetyl)piperidin-4-yl]-1,6-dimethyl-4-oxo-5-(2-oxo-2-phenylethyl)-3-propoxy-4,5-dihydro-1H-pyrrolo[3,2-c]pyridine-2-carboxamide] | 100 |  |
| CCN(CC)CCN(C)C(=O)c1sc2c(c1OC)c(=O)n(Cc1ccccn1)c1ccccc21 [Example 3, N-[2-(diethylamino)ethyl]-3-methoxy-N-methyl-4-oxo-5-(pyridin-2-ylmethyl)-4,5-dihydrothieno[3,2-c]quinoline-2-carboxamide ditrifluoroacetate] | 100 | ≤ 1 |
| COc1c(C(=O)NC2CCN(C(=O)CO)CC2)sc2c1c(=O)n(CC(=O)c1ccccc1)c1ccc(F)cc21 [Example 562, 8-fluoro-N-[1-(hydroxyacetyl)piperidin-4-yl]-3-methoxy-4-oxo-5-(2-oxo-2-phenylethyl)-4,5-dihydrothieno[3,2-c]quinoline-2-carboxamide] | 100 |  |
| CCN(C(C)=O)C1CCN(C(=O)c2sc3c(c2OC)c(=O)n(CC(=O)c2ccccc2)c2ccccc32)C1 (stereo not shown) [Example 2, N-ethyl-N-(1-{[3-methoxy-4-oxo-5-(2-oxo-2-phenylethyl)-4,5-dihydrothieno[3,2-c]quinolin-2-yl]carbonyl}pyrrolidin-3-yl)acetamide] | 100 | ≤ 1 |
| CCN(CC)CCN(C)C(=O)c1sc2c(c1OC)c(=O)n(CC(=O)C(C)(C)C)c1ccccc21 [Example 50, N-[2-(diethylamino)ethyl]-5-(3,3-dimethyl-2-oxobutyl)-3-methoxy-N-methyl-4-oxo-4,5-dihydrothieno[3,2-c]quinoline-2-carboxamide] | 100 | ≤ 1 |
| COc1c(C(=O)NCCN2CCOCC2)n(C)c2c1c(=O)n(CC(=O)c1ccccc1)c1ccccc21 [Example 71, 3-methoxy-1-methyl-N-(2-morpholin-4-ylethyl)-4-oxo-5-(2-oxo-2-phenylethyl)-4,5-dihydro-1H-pyrrolo[3,2-c]quinoline-2-carboxamide] | 100 | ≤ 1 |
| CCc1cc2c(c(OCC(F)(F)F)c(C(=O)NC3CCN(C(=O)CO)CC3)n2C)c(=O)n1Cc1ccccc1Cl [Example 660, 5-(2-chlorobenzyl)-6-ethyl-N-[1-(hydroxyacetyl)piperidin-4-yl]-1-methyl-4-oxo-3-(2,2,2-trifluoroethoxy)-4,5-dihydro-1H-pyrrolo[3,2-c]pyridine-2-carboxamide] | 100 |  |
